Test results reported in patent US11643388B2, “Inhibitors of alpha 2 beta 1 integrin and methods of use thereof” (The Regents of the University of California, priority 2020, dated 2023).
≈ marks a conversion by molar mass, not a printed value. One block for each molecule: values may come before it.

Tests used:
α4β1 = α4β1 (Homo sapiens, UniProt P05556+P13612); assay: α4β1 cell adhesion; assay type: cell-based
α2β1 [1] = biological target: T1, α2β1 (Homo sapiens, UniProt P05556+P17301); assay: α2β1 cell adhesion; assay type: cell-based
Caco-2 permeability = assay type: in vitro ADME; settings: human; for Papp A→B: A-B direction; for Papp B→A: B-A direction
α2β1 [2] = biological target: T1, α2β1; assay: α2β1 cell adhesion assay; assay type: cell-based
Metabolic stability (h) = assay type: in vitro ADME, human; settings: % remaining at 45 min
[3] = Kinetic solubility (aqueous); assay type: physicochemical; settings: kinetic from dmso stock, read-out: Kinetic Solubility (Aq)
Plasma stability (h) = assay type: in vitro ADME, human; settings: % remaining at 60 min

Chain of α4β1 (P13612 34-1032): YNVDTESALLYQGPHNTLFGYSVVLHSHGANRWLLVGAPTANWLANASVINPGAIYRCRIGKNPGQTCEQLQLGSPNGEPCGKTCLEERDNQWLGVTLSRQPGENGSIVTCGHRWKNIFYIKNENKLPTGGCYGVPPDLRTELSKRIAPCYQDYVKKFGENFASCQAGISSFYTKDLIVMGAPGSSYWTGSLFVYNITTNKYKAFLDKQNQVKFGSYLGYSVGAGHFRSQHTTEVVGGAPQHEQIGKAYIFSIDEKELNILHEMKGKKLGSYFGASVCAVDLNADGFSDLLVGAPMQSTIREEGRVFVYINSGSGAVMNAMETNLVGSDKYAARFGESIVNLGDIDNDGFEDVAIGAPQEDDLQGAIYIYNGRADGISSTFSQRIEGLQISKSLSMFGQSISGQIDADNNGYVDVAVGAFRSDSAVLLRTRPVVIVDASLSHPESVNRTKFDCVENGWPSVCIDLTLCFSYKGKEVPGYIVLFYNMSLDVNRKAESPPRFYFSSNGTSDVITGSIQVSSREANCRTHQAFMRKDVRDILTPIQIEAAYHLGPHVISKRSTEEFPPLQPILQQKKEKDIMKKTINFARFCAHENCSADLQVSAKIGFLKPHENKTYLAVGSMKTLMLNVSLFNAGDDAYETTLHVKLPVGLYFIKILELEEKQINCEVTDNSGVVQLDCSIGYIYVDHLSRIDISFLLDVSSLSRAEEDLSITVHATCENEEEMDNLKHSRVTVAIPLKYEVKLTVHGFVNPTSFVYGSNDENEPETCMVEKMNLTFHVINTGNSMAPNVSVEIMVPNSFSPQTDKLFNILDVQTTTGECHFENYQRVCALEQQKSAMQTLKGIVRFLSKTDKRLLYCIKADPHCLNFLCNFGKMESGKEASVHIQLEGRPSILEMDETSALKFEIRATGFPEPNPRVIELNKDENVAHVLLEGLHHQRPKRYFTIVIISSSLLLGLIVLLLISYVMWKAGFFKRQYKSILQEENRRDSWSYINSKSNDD
Chain of α4β1 (P05556 21-798): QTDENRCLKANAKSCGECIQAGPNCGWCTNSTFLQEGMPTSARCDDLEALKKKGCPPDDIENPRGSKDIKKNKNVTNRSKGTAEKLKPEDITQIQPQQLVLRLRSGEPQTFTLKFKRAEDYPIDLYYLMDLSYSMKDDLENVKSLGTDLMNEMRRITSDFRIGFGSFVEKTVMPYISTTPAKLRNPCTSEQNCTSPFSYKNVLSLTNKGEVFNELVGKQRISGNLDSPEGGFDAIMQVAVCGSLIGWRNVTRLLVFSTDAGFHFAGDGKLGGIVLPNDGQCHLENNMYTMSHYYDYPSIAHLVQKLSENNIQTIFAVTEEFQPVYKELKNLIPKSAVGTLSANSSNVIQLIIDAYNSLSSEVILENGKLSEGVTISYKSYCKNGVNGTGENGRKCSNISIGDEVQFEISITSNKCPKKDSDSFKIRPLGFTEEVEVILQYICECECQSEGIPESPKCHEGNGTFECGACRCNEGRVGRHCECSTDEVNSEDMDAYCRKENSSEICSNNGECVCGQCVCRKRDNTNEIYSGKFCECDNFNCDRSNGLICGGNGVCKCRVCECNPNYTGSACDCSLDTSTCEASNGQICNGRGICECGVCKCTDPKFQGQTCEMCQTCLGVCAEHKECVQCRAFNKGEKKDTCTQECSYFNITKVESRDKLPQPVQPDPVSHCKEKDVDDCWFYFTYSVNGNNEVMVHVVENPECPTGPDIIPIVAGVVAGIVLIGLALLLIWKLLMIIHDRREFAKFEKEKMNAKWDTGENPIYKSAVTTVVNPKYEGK
T1 sequence (P17301 30-1181): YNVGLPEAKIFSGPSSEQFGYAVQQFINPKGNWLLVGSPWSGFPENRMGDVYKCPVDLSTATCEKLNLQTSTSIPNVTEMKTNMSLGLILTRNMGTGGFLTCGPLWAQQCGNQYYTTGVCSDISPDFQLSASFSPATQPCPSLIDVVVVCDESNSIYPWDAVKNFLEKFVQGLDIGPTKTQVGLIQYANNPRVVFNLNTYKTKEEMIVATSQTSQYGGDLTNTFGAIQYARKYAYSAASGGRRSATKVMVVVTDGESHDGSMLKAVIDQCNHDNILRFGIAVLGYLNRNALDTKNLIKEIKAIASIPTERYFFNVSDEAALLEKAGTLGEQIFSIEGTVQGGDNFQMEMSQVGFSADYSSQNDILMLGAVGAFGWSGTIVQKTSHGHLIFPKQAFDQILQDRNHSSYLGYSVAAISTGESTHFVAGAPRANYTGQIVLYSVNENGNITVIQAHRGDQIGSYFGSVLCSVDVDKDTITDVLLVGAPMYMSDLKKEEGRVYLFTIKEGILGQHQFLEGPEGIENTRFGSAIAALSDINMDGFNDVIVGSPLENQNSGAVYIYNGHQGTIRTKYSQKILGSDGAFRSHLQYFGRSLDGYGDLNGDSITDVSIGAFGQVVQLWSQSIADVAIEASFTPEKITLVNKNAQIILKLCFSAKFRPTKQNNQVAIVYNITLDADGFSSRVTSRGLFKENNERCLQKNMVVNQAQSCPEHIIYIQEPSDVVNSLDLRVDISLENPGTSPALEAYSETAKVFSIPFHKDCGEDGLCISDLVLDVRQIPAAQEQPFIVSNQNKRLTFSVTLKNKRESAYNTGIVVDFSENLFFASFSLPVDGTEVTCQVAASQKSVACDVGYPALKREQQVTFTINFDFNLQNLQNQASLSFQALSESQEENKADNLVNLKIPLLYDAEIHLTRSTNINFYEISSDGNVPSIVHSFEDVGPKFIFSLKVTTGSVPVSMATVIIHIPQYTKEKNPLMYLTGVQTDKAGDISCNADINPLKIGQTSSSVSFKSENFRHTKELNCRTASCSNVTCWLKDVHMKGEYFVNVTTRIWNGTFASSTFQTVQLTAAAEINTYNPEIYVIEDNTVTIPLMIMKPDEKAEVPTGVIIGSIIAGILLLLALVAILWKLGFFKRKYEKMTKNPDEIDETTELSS
T1 sequence (P05556 21-798): as the sequence (P05556 21-798) above

IC50 (α4β1): 21000 nM | IC50 (α2β1 [1]): < 500 nM
Structure (SMILES): O=C(CCc1ccccc1)Nc1ccc(Cl)c(C(=O)N[C@@H](CNC(=O)N[C@@H]2CCc3ccccc32)C(=O)O)c1Cl [SU15210-0124-01, (S)-2-(2,6-dichloro-3-(3-phenylpropanamido)benzamido)-3-(3-((R)-2,3-dihydro-1H-inden-1-yl)ureido)propanoic Acid]

Papp A→B (Caco-2 permeability): 2.2 ×10⁻⁶ cm/s | Papp B→A (Caco-2 permeability): 1.5 ×10⁻⁶ cm/s | IC50 (α2β1 [1]): < 500 nM
Structure (SMILES): CN(Cc1ccccc1)C(=O)NC[C@H](NC(=O)c1c(Cl)cc(C(=O)NCc2cccc(O)c2)cc1Cl)C(=O)O [SU15210-0186-01, (S)-3-(3-benzyl-3-methylureido)-2-(2,6-dichloro-4-(3-hydroxybenzylcarbamoyl)benzamido)propanoic Acid]

IC50 (α2β1 [2]): > 5000 nM
Structure (SMILES): CN(Cc1ccccc1)C(=O)NC[C@H](NC(=O)c1c(Cl)cc2c(c1Cl)CCN(Cc1ccccc1)C2=O)C(=O)O [SU15210-0245-01, (2S)-2-[(2-benzyl-5,7-dichloro-1-oxo-3,4-dihydroisoquinoline-6-carbonyl)amino]-3-[[benzyl(methyl)carbamoyl]amino]propanoic Acid]

IC50 (α4β1): 83900 nM | IC50 (α2β1 [1]): < 500 nM
Structure (SMILES): CN(Cc1ccccc1)C(=O)NC[C@H](NC(=O)c1c(Cl)cccc1Cl)C(=O)O [SU15210-0167-01]

IC50 (α4β1): 32300 nM | IC50 (α2β1 [1]): < 500 nM
Structure (SMILES): O=C(NC[C@H](NC(=O)c1c(Cl)ccc(NCCCc2ccccc2)c1Cl)C(=O)O)N[C@@H]1CCc2ccccc21 [SU15210-0098-01, (S)-2-(2,6-dichloro-3-(3-phenylpropylamino)benzamido)-3-(3-((R)-2,3-dihydro-1H-inden-1-yl)ureido)propanoic Acid]

IC50 (α2β1 [2]): < 500 nM
Structure (SMILES): CN(Cc1ccccc1)C(=O)NC[C@H](NC(=O)c1c(Cl)cc2c(c1Cl)CCN(Cc1cccc(Cl)c1)C2=O)C(=O)O [SU15210-0242-01, (S)-3-(3-benzyl-3-methylureido)-2-(5,7-dichloro-2-(3-chlorobenzyl)-1-oxo-1,2,3,4-tetrahydroisoquinoline-6-carboxamido)propanoic Acid]

IC50 (α2β1 [2]): > 5000 nM
Structure (SMILES): CN(Cc1ccccc1)C(=O)NC[C@H](NC(=O)c1c(Cl)cc2c(c1Cl)CCN(CC#CC1CC1)C2=O)C(=O)O [SU15210-0265, (S)-3-(3-benzyl-3-methylureido)-2-(5,7-dichloro-2-(3-cyclopropylprop-2-ynyl)-1-oxo-1,2,3,4-tetrahydroisoquinoline-6-carboxamido)propanoic Acid]

IC50 (α2β1 [2]): 500 to 1000 nM
Structure (SMILES): CCOC(=O)[C@H](CNC(=O)N(C)Cc1ccccc1)NC(=O)c1c(Cl)cc2c(c1Cl)CCN(Cc1cccc(Cl)c1)C2=O [SU15210-0270-01, (S)-ethyl 3-(3-benzyl-3-methylureido)-2-(5,7-dichloro-2-(3-chlorobenzyl)-1-oxo-1,2,3,4-tetrahydroisoquinoline-6-carboxamido)propanoate]

The remaining lines, values behind:

Structure (SMILES): O=C(NC[C@H](NC(=O)c1c(Cl)cc2c(c1Cl)CCN(Cc1cccc(Cl)c1)C2=O)C(=O)O)N[C@@H]1CCc2ccccc21 [SU15210-0243-01, (2S)-2-[[5,7-dichloro-2-[(3-chlorophenyl)methyl]-1-oxo-3,4-dihydroisoquinoline-6-carbonyl]amino]-3-[[(1R)-indan-1-yl]carbamoylamino]propanoic Acid]
IC50 (α2β1 [2]): > 5000 nM

Structure (SMILES): O=C(NC[C@H](NC(=O)c1c(Cl)ccc(N2CC(c3ccccc3)C2)c1Cl)C(=O)O)N[C@@H]1CCc2ccccc21 [SU15210-0080-01, (S)-2-(2,6-dichloro-3-(3-phenylazetidin-1-yl)benzamido)-3-(3-((R)-2,3-dihydro-1H-inden-1-yl)ureido)propanoic Acid]
IC50 (α4β1): 37000 nM | IC50 (α2β1 [1]): < 500 nM

Structure (SMILES): O=C(NC[C@H](NC(=O)c1c(Cl)cc2c(c1Cl)CCN(Cc1ccc(Cl)cc1)C2=O)C(=O)O)N[C@@H]1CCc2ccccc21 [SU15210-0244-01]
IC50 (α2β1 [2]): > 5000 nM

Structure (SMILES): O=C(NC[C@H](NC(=O)c1c(Cl)cc(C(=O)NCc2cccc(Cl)c2)cc1Cl)C(=O)O)N[C@@H]1CCc2cc(Cl)ccc21 [SU15210-0294, (S)-3-(3-((R)-5-chloro-2,3-dihydro-1H-inden-1-yl)ureido)-2-(2,6-dichloro-4-(3-chlorobenzylcarbamoyl)benzamido)propanoic Acid]
IC50 (α2β1 [2]): 500 to 1000 nM

Structure (SMILES): O=C(Cc1cccc(Cl)c1)Nc1ccc(Cl)c(C(=O)N[C@@H](CNC(=O)N[C@@H]2CCc3ccccc32)C(=O)O)c1Cl [SU15210-0099-01, (S)-2-(2,6-dichloro-3-(2-(3-chlorophenyl)acetamido)benzamido)-3-(3-((R)-2,3-dihydro-1H-inden-1-yl)ureido)propanoic Acid]
Papp A→B (Caco-2 permeability): 2.7 ×10⁻⁶ cm/s | Papp B→A (Caco-2 permeability): 20.1 ×10⁻⁶ cm/s | Met Stab(h) % rem/45 min (Metabolic stability (h)): 72.3% | IC50 (α2β1 [1]): < 500 nM | solubility kinetic [3]: 66.9 µM (≈ 40.4 µg/mL) | Plasma Stab(h) % rem/60 min (Plasma stability (h)): 85.84%

Structure (SMILES): O=C(NC[C@H](NC(=O)c1c(Cl)cc(C(=O)NCc2cccc(Cl)c2)cc1Cl)C(=O)O)N[C@@H]1CCc2ccccc21 [SU15210-0185-01, (S)-2-(2,6-dichloro-4-(3-chlorobenzylcarbamoyl)benzamido)-3-(3-((R)-2,3-dihydro-1H-inden-1-yl)ureido)propanoic Acid]
Papp A→B (Caco-2 permeability): 2.2 ×10⁻⁶ cm/s | Papp B→A (Caco-2 permeability): 5.53 ×10⁻⁶ cm/s | IC50 (α2β1 [1]): < 500 nM

Structure (SMILES): O=C(NC[C@H](NC(=O)c1c(Cl)ccc(Nc2ncc3ccccc3n2)c1Cl)C(=O)O)N[C@@H]1CCc2ccccc21 [SU15210-0076-01, (S)-2-(2,6-dichloro-3-(quinazolin-2-ylamino)benzamido)-3-(3-((R)-2,3-dihydro-1H-inden-1-yl)ureido)propanoic Acid]
Papp A→B (Caco-2 permeability): 0.2 ×10⁻⁶ cm/s | Papp B→A (Caco-2 permeability): 24.2 ×10⁻⁶ cm/s | Met Stab(h) % rem/45 min (Metabolic stability (h)): 96.3% | IC50 (α4β1): 2900 nM | IC50 (α2β1 [1]): < 500 nM | Plasma Stab(h) % rem/60 min (Plasma stability (h)): 55.6%

Structure (SMILES): O=C(NC[C@H](NC(=O)c1c(Cl)cc(C(=O)NCc2cccc(O)c2)cc1Cl)C(=O)O)N[C@@H]1CCc2ccccc21 [SU15210-0095-01, (S)-2-(2,6-dichloro-4-(3-hydroxybenzylcarbamoyl)benzamido)-3-(3-((R)-2,3-dihydro-1H-inden-1-yl)ureido)propanoic Acid]
Papp A→B (Caco-2 permeability): 3.2 ×10⁻⁶ cm/s | Papp B→A (Caco-2 permeability): 1.6 ×10⁻⁶ cm/s | Met Stab(h) % rem/45 min (Metabolic stability (h)): 99.6% | IC50 (α4β1): 21100 nM | IC50 (α2β1 [1]): < 500 nM | Plasma Stab(h) % rem/60 min (Plasma stability (h)): 99.4%

Structure (SMILES): O=C(NC[C@H](NC(=O)c1c(Cl)cc(C(=O)NCc2cccc(C(F)(F)F)c2)cc1Cl)C(=O)O)N[C@@H]1CCc2ccccc21 [SU15210-0293, (S)-2-(2,6-dichloro-4-(3-(trifluoromethyl)benzylcarbamoyl)benzamido)-3-(3-((R)-2,3-dihydro-1H-inden-1-yl)ureido)propanoic Acid]
IC50 (α2β1 [2]): < 500 nM

Structure (SMILES): N#Cc1cccc(CNC(=O)c2cc(Cl)c(C(=O)N[C@@H](CNC(=O)N[C@@H]3CCc4ccccc43)C(=O)O)c(Cl)c2)c1 [SU15210-0292, (S)-2-(2,6-dichloro-4-(3-cyanobenzylcarbamoyl)benzamido)-3-(3-((R)-2,3-dihydro-1H-inden-1-yl)ureido)propanoic Acid]
IC50 (α2β1 [2]): < 500 nM

Structure (SMILES): O=C(NC[C@H](NC(=O)c1c(Cl)cc(C(=O)NCc2ccc(Cl)c(Cl)c2)cc1Cl)C(=O)O)N[C@@H]1CCc2ccccc21 [SU15210-0291, (S)-2-(2,6-dichloro-4-(3,4-dichlorobenzylcarbamoyl)benzamido)-3-(3-((R)-2,3-dihydro-1H-inden-1-yl)ureido)propanoic Acid]
IC50 (α2β1 [2]): < 500 nM

Structure (SMILES): COc1cccc(CNC(=O)c2cc(Cl)c(C(=O)N[C@@H](CNC(=O)N[C@@H]3CCc4ccccc43)C(=O)O)c(Cl)c2)c1 [SU15210-0290-01, (S)-2-(2,6-dichloro-4-(3-methoxybenzylcarbamoyl)benzamido)-3-(3-((R)-2,3-dihydro-1H-inden-1-yl)ureido)propanoic Acid]
IC50 (α2β1 [2]): < 500 nM

Structure (SMILES): O=C(NC[C@H](NC(=O)c1c(Cl)cc2c(c1Cl)CCN(C(=O)c1ccccc1)C2)C(=O)O)N[C@@H]1CCc2ccccc21 [SU15210-0173-01]
Papp A→B (Caco-2 permeability): 0.8 ×10⁻⁶ cm/s | Papp B→A (Caco-2 permeability): 6.8 ×10⁻⁶ cm/s | Met Stab(h) % rem/45 min (Metabolic stability (h)): 65% | IC50 (α2β1 [1]): < 500 nM | Plasma Stab(h) % rem/60 min (Plasma stability (h)): 108%
